Measured values as given in patent US6147097A, “Imidazole derivatives as anti-HIV agents” (Shionogi & Co., Ltd., priority 1994, dated 2000).
pIC50: −log10 of the molar value. ≈ marks a conversion by molar mass, not a printed value. Where two headings read alike, the source gives them in different places.

Columns and labels:
MT-4 cells = assay: cytotoxicity in MT-4 cells (MTT, culture medium in place of HIV); format: cell-based; conditions: human, mt-4 cells, 120 h
In short: (§1)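 Uninfected readout: compound-treated MT-4 cultures, 3.5×10^4 cells/well, received medium in place of virus and were kept 5 days at 37° C. Viability measured by 1 h MTT reduction, solubilized formazan read at 560/690 nm relative to control wells.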

HIV (HTLV-IIIB strain) = assay: microbe, parasite or virus in culture; format: cell-based; conditions: Human immunodeficiency virus 1, IIIB, MT4, 120 h
In short: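 Protection from virus was read as viable-cell MTT conversion to formazan after 5 days at 37° C. The cultures contained MT-4 cells (3.5×10^4/well), compound dilutions and 60 pfu HIV per well.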

[1] = cytotoxicity in MT-4 cells (MTT, culture medium in place of HIV); format: cell-based; conditions: human
In short: as §1

[2] = biological target: T1, purified recombinant HIV-1 reverse transcriptase (Human immunodeficiency virus type 1 group M subtype B, UniProt P04585); assay: reverse transcriptase inhibition, poly(rA)/(dT) template primer, [3H]dTTP uptake; format: biochemical
T1 construct: purified recombinant HIV-1 reverse transcriptase; made in house; host or cells: Escherichia coli
In short: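 Inhibition reported as percent reduction of [3H]dTTP incorporation relative to solvent control, after 1 h at 37 °C at pH 8.3. Recombinant RT from E. coli, poly(rA) template with oligo(dT) primer, 4 μM unlabeled dTTP as substrate; product collected on DEAE filter mats.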

[3] = MT-4 cells, 60 pfu HIV per well, 37° C., 5 days, MTT, Tables 1 and 2, read-out: EC50
[4] = MT-4 cells, no virus, 37° C., 5 days, MTT, Table 3, read-out: CC50

| SMILES | EC50 (head of Table 4; CC50 per Test Example 2) (MT-4 cells) | EC50 (HIV (HTLV-IIIB strain); [3]) | CC50 at 120 h ([1]; mt-4 cells) | pIC50 [2] | CC50 at 120 h [1, 4] | EC50 (HIV (HTLV-IIIB strain)) |
| --- | --- | --- | --- | --- | --- | --- |
| CC(O)Cn1c(CO)nc(C(C)C)c1Sc1cc(Cl)cc(Cl)c1 (stereo not shown) [Compound 141a, 5-(3,5-dichlorophenylthio)-2-hydroxymethyl-1-(2-hydroxypropyl)-4-isopropyl-1H-imidazole] | 12.5 to 25 µg/mL | – | – | – | – | – |
| CC(C)c1nc(CO)n(CCCCCc2ccccc2)c1Sc1cc(Cl)cc(Cl)c1 [Compound I-124, 5-(3,5-dichlorophenylthio)-2-hydroxymethyl-4-isopropyl-1-(5-phenylpentyl)-1H-imidazole] | – | 250 ng/mL (≈ 0.539 µM) | 12.5 µg/mL (≈ 27 µM) | < 3.67 | – | – |
| Cc1cc(C)cc(S(=O)(=O)c2c(C(C)C)nc(C)n2C)c1 [Compound I-105, 5-(3,5-dimethylphenylsulfonyl)-4-isopropyl-1,2-dimethyl-1H-imidazole] | – | 500 ng/mL (≈ 1.63 µM) | – | 3.77 | 50 to 100 µg/mL (≈ 163 to 326 µM) | – |
| CC(C)c1nc(COC(N)=O)n(CCCc2ccccn2)c1Sc1cc(Cl)cc(Cl)c1 [Compound I-130, 2-carbamoyloxymethyl-5-(3,5-dichlorophenylthio)-4-isopropyl-1-(3-(2-pyridyl)propyl)-1H-imidazole] | – | < 8 ng/mL | 6.3 to 12.5 µg/mL (≈ 13.1 to 26.1 µM) | 5.40 | – | – |
| C=CCn1c(CO)nc(C(C)C)c1Sc1cc(Cl)cc(Cl)c1 [Compound I-19, [1-allyl-5-(3,5-dichlorophenylthio)-4-isopropyl-1H-imidazol-2-yl]methanol] | – | – | – | 5.70 | 10 to 100 µg/mL (≈ 28 to 280 µM) | 4 to 8 ng/mL (≈ 0.0112 to 0.0224 µM) |
| CC(C)c1nc(CCO)n(Cc2cccc(N)c2)c1Sc1cc(Cl)cc(Cl)c1 [Compound I-141, I-(m-aminobenzyl)-5-(3,5-dichlorophenylthio)-2-hydroxyethyl-4-isopropyl-1H-imidazole] | – | < 8 ng/mL | 25 to 50 µg/mL (≈ 57.3 to 115 µM) | 5.38 | – | – |
| CC(C)c1nc(CO)n(Cc2ccccc2N)c1Sc1cc(Cl)cc(Cl)c1 [Compound I-119, 1-(o-aminobenzyl)-5-(3,5-dichlorophenylthio)-2-hydroxymethyl-4-isopropyl-1H-imidazole] | – | 130 to 250 ng/mL (≈ 0.308 to 0.592 µM) | 3.1 µg/mL (≈ 7.34 µM) | 5.11 | – | – |
| CC(C)c1nc(CO)n(C)c1Sc1cc(Cl)cc(Cl)c1 [Compound I-8, [5-(3,5-dichlorophenylthio)-4-isopropyl-1-methyl-1H-imidazol-2-yl]methanol] | – | 16 ng/mL (≈ 0.0483 µM) | – | 5.52 | 12.5 µg/mL (≈ 37.7 µM) | – |
| CC(C)c1nc(CNCCO)n(C)c1Sc1cc(Cl)cc(Cl)c1 [Compound I-79, 2-{[5-(3,5-dichlorophenylthio)-4-isopropyl-1-methyl-1H-imidazol-2-yl]methylamino} ethanol] | – | 250 ng/mL (≈ 0.668 µM) | – | 4.46 | 1 to 10 µg/mL (≈ 2.67 to 26.7 µM) | – |
| CC(C)c1nc(CO)n(Cc2cnc3ccccc3c2)c1Sc1cc(Cl)cc(Cl)c1 [Compound 109, 2-hydroxymethyl-5-(3,5-dichlorophenylthio)-4-isopropyl-1-(quinolin-3-ylmethyl)-1H-imidazole] | – | 8 ng/mL (≈ 0.0175 µM) | 100 µg/mL (≈ 218 µM) | 5.36 | – | – |
| CC(C)c1nc(COC(N)=O)n(Cc2cnc3ccccc3c2)c1Sc1cc(Cl)cc(Cl)c1 [Compound I-128, 2-carbamoyloxymethyl-5-(3,5-dichlorophenylthio)-4-isopropyl-1-(quinolin-3-ylmethyl)-1H-imidazole] | – | < 8 ng/mL | > 100 µg/mL | 5.27 | – | – |
| Cc1ncccc1Cn1c(COC(N)=O)nc(C(C)C)c1Sc1cc(Cl)cc(Cl)c1 [Compound I-133, 2-carbamoyloxymethyl-5-(3,5-dichlorophenylthio)-4-isopropyl-1-(2-methylpyridin-3-ylmethyl)-1H-imidazole] | – | 8 ng/mL (≈ 0.0172 µM) | 12.5 µg/mL (≈ 26.9 µM) | 4.14 | – | – |
| CCCn1c(CO)nc(C(C)C)c1Sc1cc(Cl)cc(Cl)c1 [Compound I-26, [5-(3,5-dichlorophenylthio)-4-isopropyl-1-n-propyl-1H-imidazol-2-yl]methanol] | – | – | – | 5.60 | 10 to 100 µg/mL (≈ 27.8 to 278 µM) | 4 to 8 ng/mL (≈ 0.0111 to 0.0223 µM) |
| CCn1c(CN)nc(C(C)C)c1Sc1ccccc1 [Compound I-75, 2-aminomethyl-1-ethyl-4-isopropyl-5-phenylthio-1H-imidazole] | – | 10 ng/mL (≈ 0.0363 µM) | 16.5 µg/mL (≈ 59.9 µM) | 6.10 | – | – |
| CCn1c(CCOC(N)=O)nc(C(C)C)c1Sc1cc(Cl)cc(Cl)c1 [Compound I-137, 2-(2-carbamoyloxyethyl)-5-(3,5-dichlorophenylthio)-1-ethyl-4-isopropyl-1H-imidazole] | – | – | 50 µg/mL (≈ 124 µM) | 5.09 | – | 4 to 8 ng/mL (≈ 0.00994 to 0.0199 µM) |
| CC(C)c1nc(CO)n(CF)c1Sc1cc(Cl)cc(Cl)c1 [Compound I-34, [1-fluoromethyl-5-(3,5-dichlorophenylthio)-4-isopropyl-1H-imidazol-2-yl]methanol] | – | 6 ng/mL (≈ 0.0172 µM) | 13.5 µg/mL (≈ 38.7 µM) | 5.40 | – | – |
| CC(=O)Cn1c(CO)nc(C(C)C)c1Sc1cc(Cl)cc(Cl)c1 [Compound I-32] | – | 60 ng/mL (≈ 0.161 µM) | – | 5.14 | 10 to 100 µg/mL (≈ 26.8 to 268 µM) | – |
